Results reported in patent US11840686B2, “Modulation of prekallikrein (PKK) expression” (Ionis Pharmaceuticals, Inc., priority 2013, dated 2023).
pIC50: −log10 of the molar value. Strand notation (5' to 3'): a small letter for the sugar, then the base; units joined by * are phosphorothioate-linked, units joined directly phosphodiester-linked; [ ] holds rarer units or linkages, { } end groups; capitals alone tell only the bases. e = 2'-O-(2-methoxyethyl) (MOE); [5mC] = 5-methylcytosine; d = 2'-deoxy (DNA)

Tests used:
human PKK mRNA [1] = assay: Human PKK mRNA in liver of human KLKB1 transgenic mice (Example 7); type: in vivo; settings: twice a week for 3 weeks
Experimental: (§1) Transgenic mice containing a 37,390 base pair fragment of the human KLKB1 gene sequence (chromosome 4: position 187148672-187179625, accession no: NC_000004.11) were treated with ISIS antisense oligonucleotides selected from studies described above, which were evaluated for efficacy in this model.
(§2) Groups of transgenic mice were injected subcutaneously twice a week for 3 weeks with 2.5 mg/kg/week, 5.0 mg/kg/week, 10 mg/kg/week or 20 mg/kg/week of ISIS 546232, ISIS 546251, ISIS 546254, ISIS 546343, ISIS 546828, ISIS 547455, ISIS 547457, ISIS 547927, and ISIS 548048. One group of transgenic mice was injected subcutaneously twice a week for 3 weeks with PBS. Mice were euthanized 48 hours after the last dose, and organs and plasma were harvested for further analysis.
To evaluate the effect of ISIS oligonucleotides on target reduction, RNA was extracted from liver tissue for real-time PCR analysis of human PKK. Results are presented as percent inhibition of PKK mRNA, relative to PBS control.

PKK mRNA = PKK mRNA in cynomolgus monkey liver (Example 8); type: in vivo; settings: 40 mg/kg s.c., loading then weekly to week 13; day 87 or 88, 48 h after final dose
Experimental: Cynomolgus monkeys were treated with ISIS antisense oligonucleotides selected from studies described above. Antisense oligonucleotide efficacy and tolerability were evaluated. The human antisense oligonucleotides tested are cross-reactive with the rhesus genomic sequence (GENBANK Accession No. NW_001118167.1 truncated from nucleotides 2358000 to 2391000 and designated herein as SEQ ID NO: 18).
On day 87 or 88, 48 hours after the final dose, RNA was extracted from liver tissue for real-time PCR analysis of PKK using primer probe set RTS3455 (forward sequence […], designated herein as SEQ ID NO: 23; reverse sequence […], designated herein as SEQ ID NO: 24; probe sequence […], designated herein as SEQ ID NO: 25). The results were normalized to the housekeeping gene, Cyclophilin. Results are presented as percent inhibition of PKK mRNA, relative to PBS control.

human PKK mRNA [2] = assay: Antisense inhibition of human PKK mRNA in HepaRG cells, 5,000 nM (Example 2); type: cell-based
Outline: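 Percent inhibition of PKK mRNA is relative to untreated control, with qRT-PCR (probe set RTS3454) values adjusted to total RNA by RIBOGREEN. Oligonucleotides, fully phosphorothioate 2′-MOE gapmers, were delivered at 5,000 nM by electroporation into 20,000 HepaRG cells/well for about 24 h.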

PKK protein = assay: Plasma PKK protein levels in human KLKB1 transgenic mice (Example 7); type: in vivo; settings: plasma, twice a week for 3 weeks
Experimental: as §1, §2
Plasma PKK protein levels were evaluated in all groups. Results are presented as percent inhibition of PKK protein, relative to PBS control.

human PKK mRNA [3] = assay: Dose-dependent antisense inhibition of human PKK in HepaRG cells, 0.19-5.00 uM (Example 5); type: cell-based
Outline: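 PKK mRNA knockdown was measured by real-time PCR (primer probe set RTS3454) about 16 h after electroporating 20,000 HepaRG cells per well with oligonucleotide at four doses from 0.19 to 5.00 μM. Levels were adjusted to RIBOGREEN-measured total RNA, and IC50 values were calculated.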

[4] = Table 9 experiment, HepaRG cells, 20,000 cells per well, electroporation with 5,000 nM antisense oligonucleotide, approx. 24 hours, PKK mRNA by RT-PCR (RTS3454), relative to untreated control cells
[5] = Table 10 experiment, HepaRG cells, 20,000 cells per well, electroporation with 5,000 nM antisense oligonucleotide, approx. 24 hours, PKK mRNA by RT-PCR (RTS3454), relative to untreated control cells
[6] = HepaRG cells, electroporation, approximately 16 hours, Table 39
[7] = Table 34, HepaRG, electroporation, ~16 h

Row | Substance | % inhibition of PKK mRNA in the transgenic mice liver relative to the PBS control (human PKK mRNA [1]; 2.5 mg/kg/week sc) [%] | % inhibition of PKK mRNA in the transgenic mice liver relative to the PBS control (human PKK mRNA [1]; 5 mg/kg/week sc) [%] | % inhibition of PKK mRNA in the transgenic mice liver relative to the PBS control (human PKK mRNA [1]; 10 mg/kg/week sc) [%] | % inhibition of PKK mRNA in the transgenic mice liver relative to the PBS control (human PKK mRNA [1]; 20 mg/kg/week sc) [%] | % inhibition of PKK mRNA in the cynomolgus monkey liver relative to the PBS control (PKK mRNA) [%] | % inhibition (human PKK mRNA [2]; [4]) [%] | % inhibition (human PKK mRNA [2]; [5]) [%] | % inhibition of PKK protein levels in the transgenic mice relative to the PBS control (PKK protein; 2.5 mg/kg/week sc) [%] | % inhibition of PKK protein levels in the transgenic mice relative to the PBS control (PKK protein; 5 mg/kg/week sc) [%] | % inhibition of PKK protein levels in the transgenic mice relative to the PBS control (PKK protein; 10 mg/kg/week sc) [%] | % inhibition of PKK protein levels in the transgenic mice relative to the PBS control (PKK protein; 20 mg/kg/week sc) [%] | other results
1 | 547455 (antisense eA*eT*eA*eT*e[5mC]*dA*dT*dG*dA*dT*dT*d[5mC]*d[5mC]*d[5mC]*dT*eT*e[5mC]*eT*eG*eA) [compound 547455] | 0 | 69 | 45 | 62 | 90 | 88 | 66 | 0 | 0 | 32 | 78 | –
2 | 547457 (antisense eA*eA*eG*eG*e[5mC]*dG*dA*dT*dA*dT*d[5mC]*dA*dT*dG*dA*eT*eT*e[5mC]*e[5mC]*e[5mC]) [compound 547457] | 0 | 69 | 45 | 62 | 89 | 89 | 92 | 0 | 4 | 31 | 60 | percent inhibition of PKK at 0.19 μM (human PKK mRNA [3]; [6]): 41%; percent inhibition of PKK at 0.56 μM (human PKK mRNA [3]; [6]): 65%; percent inhibition of PKK at 1.67 μM (human PKK mRNA [3]; [6]): 80%; percent inhibition of PKK at 5.00 μM (human PKK mRNA [3]; [6]): 85%; pIC50 (human PKK mRNA [3]; 4 point dose response, HepaRG cells, Table 39): 6.52; percent inhibition of PKK mRNA, 0.19 μM (human PKK mRNA [3]; HepaRG cells, 0.19 μM antisense oligonucleotide): 33%; percent inhibition of PKK mRNA, 0.56 μM (human PKK mRNA [3]; HepaRG cells, 0.56 μM antisense oligonucleotide): 42%; percent inhibition of PKK mRNA, 1.67 μM (human PKK mRNA [3]; HepaRG cells, 1.67 μM antisense oligonucleotide): 70%; percent inhibition of PKK mRNA, 5.00 μM (human PKK mRNA [3]; HepaRG cells, 5.00 μM antisense oligonucleotide): 83%; pIC50 (human PKK mRNA [3]; HepaRG cells, 0.19-5.00 μM): 6.22
3 | 546828 (eA*e[5mC]*eA*eG*eT*dA*dT*d[5mC]*dA*d[5mC]*dT*dG*dT*dA*d[5mC]*eT*eA*eG*eT*eT) [compound 546828] | 77 | 62 | 32 | 83 | 45 | – | – | 0 | 25 | 36 | 93 | % inhibition (human PKK mRNA [2]; Table 13, human PKK mRNA in HepaRG cells, 5-10-5 gapmers): 95%; percent inhibition of PKK at 5.00 μM (human PKK mRNA [3]; HepaRG cells, electroporation, approximately 16 hours, Table 41): 97%; percent inhibition of PKK at 0.19 0μM (human PKK mRNA [3]; 0.19 0μM, HepaRG cells, electroporation, approximately 16 hours, Table 41): 0%; percent inhibition of PKK at 0.56 0μM (human PKK mRNA [3]; 0.56 0μM, HepaRG cells, electroporation, approximately 16 hours, Table 41): 64%; percent inhibition of PKK at 1.67 1μM (human PKK mRNA [3]; 1.67 1μM, HepaRG cells, electroporation, approximately 16 hours, Table 41): 89%; pIC50 (human PKK mRNA [3]; 4 point dose response, HepaRG cells, Table 41): 6.70; percent inhibition of PKK at 0.19 μM (human PKK mRNA [3]; [7]): 39%; percent inhibition of PKK at 0.56 μM (human PKK mRNA [3]; [7]): 58%; percent inhibition of PKK at 1.67 μM (human PKK mRNA [3]; [7]): 87%; percent inhibition of PKK at 5.00 μM (human PKK mRNA [3]; [7]): 93%; pIC50 (human PKK mRNA [3]; Table 34, PKK mRNA, HepaRG, electroporation, ~16 h): 6.52
